Experimental data taken from US20240344035A1, “Culture Medium and Culture Method for Human Primary Acute Myeloid Leukemia Cells” (PRECEDO PHARMACEUTICALS CO., LTD, priority 2021, published 2024).

B1: recombinant human macrophage colony-stimulating factor (protein, UniProt P09603 33-554, looked up)
Macrophage colony-stimulating …: EEVSEYCSHMIGSGHLQSLQRLIDSQMETSCQITFEFVDQEQLKDPVCYLKKAFLLVQDIMEDTMRFRDNTPNAIAIVQLQELSLRLKSCFTKDYEEHDKACVRTFYETPLQLLEKVKNVFNETKNLLDKDWNIFSKNCNNSFAECSSQDVVTKPDCNCLYPKAIPSSDPASVSPHQPLAPSMAPVAGLTWEDSEGTEGSSLLPGEQPLHTVDPGSAKQRPPRSTCQSFEPPETPVVKDSTIGGSPQPRPSVGAFNPGMEDILDSAMGTNWVPEEASGEASEIPVPQGTELSPSRPGGGSMQTEPARPSNFLSASSPLPASAKGQQPADVTGTALPRVGPVRPTGQDWNHTPQKTDHPSALLRDPPEPGSPRISSLRPQGLSNPSTLSAQPQLSRSHSSGSVLPLGELEGRRSTRDRRSPAEPEGGPASEGAARPLPRFNSVPLTDTGHERQSEGSFSPQLQESVFHLLVPSVILVLLAVGGLLFYRWRRRSHQEPQRADSPLEQPEGSPLTQDDRQVELPV
notes: growth factor additive from Sino Biological
B2: human interleukin-4 (protein, UniProt P05112 25-153, looked up)
Interleukin-4: HKCDITLQEIIKTLNSLTEQKTLCTELTVTDIFAASKNTTEKETFCRAATVLRQFYSHHEKDTRCLGATAQQFHRHKQLIRFLKRLDRNLWGLAGLNSCPVKEANQSTLENFLERLKTIMREKYSKCSS
notes: cytokine additive from Sino Biological
B3: human interleukin-10 (protein, UniProt P22301 19-178, looked up)
Interleukin-10: SPGQGTQSENSCTHFPGNLPNMLRDLRDAFSRVKTFFQMKDQLDNLLLKESLLEDFKGYLGCQALSEMIQFYLEEVMPQAENQDPDIKAHVNSLGENLKTLRLRLRRCHRFLPCENKSKAVEQVKNAFNKLQEKGIYKAMSEFDIFINYIEAYMTMKIRN
notes: as for B2
B4: recombinant human FLT3 Ligand (protein, UniProt P49771 27-235, looked up)
Fms-related tyrosine kinase 3 …: TQDCSFQHSPISSDFAVKIRELSDYLLQDYPVTVASNLQDEELCGGLWRLVLAQRWMERLKTVAGSKMQGLLERVNTEIHFVTKCAFQPPPSCLRFVQTNISRLLQETSEQLVALKPWITRQNFSRCLELQCQPDSSTLPPPWSPRPLEATAPTAPQPPLLLLLLLPVGLLLLAAAWCLHWQRTRRRTPRPGEQVPPVPSPQDLLLVEH
notes: as for B1
B5: human interleukin-22 (protein, UniProt Q9GZX6 34-179, looked up)
Interleukin-22: APISSHCRLDKSNFQQPYITNRTFMLAKEASLADNNTDVRLIGEKLFHGVSMSERCYLMKQVLNFTLEEVLFPQSDRFQPYMQEVVPFLARLSNRLSTCHIEGDDLHIQRNVQKLKDTVKKLGESGEIKAIGELDLLFMSLRNACI
notes: cytokine additive from Peprotech
B6: human interleukin-11 (protein, UniProt P20809 22-199, looked up)
Interleukin-11: PGPPPGPPRVSPDPRAELDSTVLLTRSLLADTRQLAAQLRDKFPADGDHNLDSLPTLAMSAGALGALQLPGVLTRLRADLLSYLRHVQWLRRAGGSSLKTLEPELGTLQARLDRLLRRLQLLMSRLALPQPPPDPPAPPLAPPSSAWGGIRAAHAILGGLHLTLDWAVRGLLLLKTRL
notes: as for B2
B7: human granulocyte colony stimulating factor (protein, UniProt P09919 31-207, looked up)
Granulocyte …: TPLGPASSLPQSFLLKCLEQVRKIQGDGAALQEKLVSECATYKLCHPEELVLLGHSLGIPWAPLSSCPSQALQLAGCLSQLHSGLFLYQGLLQALEGISPELGPTLDTLQLDVADFATTIWQQMEELGMAPALQPTQGAMPAFASAFQRRAGGVLVASHLQSFLEVSYRVLRHLAQP
notes: as for B1

How the values were obtained:
Type in all cases: cell-based
[1] = system: human primary acute myeloid leukemia cells; assay: Proliferative effects of different concentrations of added factors (ratio to Blank Control, FIGS. 2A-2H); conditions: for concentration at which the cell proliferation effect is most significant: five concentrations tested; for proliferation-promoting effect of the factor: samples A23065, A17112, factor added back to formulation lacking it
Procedure: Human primary acute myeloid leukemia cells were obtained from human primary acute myeloid leukemia bone marrow samples (numbered A23065, A17112) according to the process of step (2)-3 of Example 1. The cells were resuspended with Basal Medium (monocyte serum-free medium+10% (v/v) fetal bovine serum+100 μg/mL Primocin) for later use.
20 μl of cell suspension containing 4×10^4 cells was added to each well, and the suspension was diluted with 1 mL medium of the above Formulations 1-8, respectively.
(§1) When using the culture medium of Formulation 1, the prepared glutamine additive was added respectively to a 48-well plate inoculated with primary cells, with 1 mL per well, and the final concentration of glutamine additive was 0.5 mM, 1 mM, 2 mM, 4 mM, 8 mM, respectively; a well of Blank Control (BC) was set using the culture medium of Formulation 1.
as §1, with “2,” for “1,”, “human SCF” for “glutamine additive”, “was” for “was 0.5 mM,”, “ng/mL, 3 ng/mL, 9 ng/mL, 27 ng/mL, 81 ng/mL,” for “mM, 2 mM, 4 mM, 8 mM,”, “2.” for “1.”
as §1, with “5,” for “1,”, “human FLT3L” for “glutamine additive”, “was” for “was 0.5 mM,”, “ng/mL, 3 ng/mL, 9 ng/mL, 27 ng/mL, 81 ng/mL,” for “mM, 2 mM, 4 mM, 8 mM,”, “5.” for “1.”
When using the culture medium of Formulation 6, the prepared non-essential amino acids were added respectively to a 48-well plate inoculated with primary cells, with 1 mL per well, and the final concentration of non-essential amino acids was 12.5 µM, 25 µM, 50 µM, 100 µM, 200 µM, respectively; a well of Blank Control (BC) was set using the culture medium of Formulation 6.
as §1, with “8,” for “1,”, “human M-CSF” for “glutamine additive”, “was” for “was 0.5 mM,”, “ng/mL, 3 ng/mL, 9 ng/mL, 27 ng/mL, 81 ng/mL,” for “mM, 2 mM, 4 mM, 8 mM,”, “8.” for “1.”
In FIGS. 2A to 2H, the ratio is a ratio of the number of cells of the first passage cultured by using each culture medium to the number of cells of the first passage cultured in the corresponding well of Blank Control.

[2] = system: human primary acute myeloid leukemia cells; assay: Effect of combinations of added factors on proliferation (viable cell counting, FIG. 1); conditions: six bone marrow samples
Procedure: The culture mediums for human primary acute myeloid leukemia cells containing different combinations of added factors were prepared according to the components in Table 2, to investigate the proliferation-promoting effects of different added factor combinations on human primary acute myeloid leukemia cells.
Human primary acute myeloid leukemia cells were obtained from human primary acute myeloid leukemia bone marrow samples (numbered A17151, A17152, A20090, A20101, A21004, A20141) according to the process of step (2)-3 of Example 1. The obtained cell suspension was divided into 11 equal parts, which were then centrifuged at 1500 rpm for 4 minutes. After centrifugation, the cells were resuspended with 200 μL BM or No. 1 to 10 culture medium, respectively, and inoculated into a 48-well plate at a viable cell density of 2×10^4 cells/well (20,000 cells per well). Each well in the 48-well plate was supplemented to a volume of 1 mL with the corresponding culture mediums, and the resultant was fully mixed. After surface disinfection, the plate was placed in a 37° C., 5% CO2 incubator (purchased from Thermo Fisher) for culture.
The cells in the 48-well plate grew to more than 85% and were transferred to a 15 mL centrifuge tube which was then centrifuged at 1500 rpm for 5 minutes. 500 μL of monocyte serum-free medium was added to the centrifuge tube to resuspend the cell pellet. 12 μL of the resuspended cell suspension was fully mixed with 12 μL of trypan blue dye (Sangon Biotech (Shanghai) Co., Ltd.), and then 20 μL of the mixture was added into a cell counting plate (Countstar, specifications: 50 pieces/box). The percentage of viable large cells (cell size>10 μm) were calculated using a cell counter (Countstar, IC1000) (percentage of viable large cells (cell size>10 μm)=number of viable cells/total number of cells*100%). The results obtained from human primary acute myeloid leukemia cells of bone marrow samples A17151, A17152, A20090, A20101, A21004, and A20141 are shown in FIG. 1.

[3] = system: human primary acute myeloid leukemia cells; assay: Effect of single added factors in Basal Medium on proliferation (CCK-8); conditions: additive at the listed final concentration in Basal Medium; samples A17007, A25104; 5 to 8 days; CCK-8, 450 nm; versus Basal Medium
Procedure: First, the Basal Medium was prepared. The formulation of the Basal Medium was monocyte serum-free medium (purchased from BI, 05-080-1A)+10% (v/v) fetal bovine serum (purchased from ExCell Bio, FND500)+100 μg/mL Primocin (purchased from InvivoGen, 0.2% (v/v), the commercial product concentration is 50 mg/mL).
Different types of growth factors (see Table 1) were added to the Basal Medium to prepare culture mediums for human primary acute myeloid leukemia cells containing different added components.
The culture mediums of different compositions in Table 1 were added into a 96-well plate in a volume of 100 μL/well. Human primary acute myeloid leukemia cells isolated from two cases of human primary acute myeloid leukemia bone marrow samples (numbered A17007, A25104, from the First Affiliated Hospital of Anhui Medical University) according to the above step (2) were inoculated in the 96-well culture plate at a density of 1×10^4 cells/well and cultured at 37° C. and 5% […]. After 5 to 8 days of culture, the cells grew to 70% to 85%, and 10 μL of Cell Counting Kit-8 (CCK-8, purchased from MCE) was added to each well and incubated at 37° C. and 5% CO2 for 2 to 4 hours. The substances in each well were mixed, and the plate was read using a multifunctional microplate reader (Multi-Mode Detection Platform, American Molecular Instruments (Shanghai) Co., Ltd.) at 450 nm. The Basal Medium without addition of any additive was used as a control.

Molecule | concentration at which the cell proliferation effect is most significant [1] [ng/mL] | proliferation-promoting effect of the factor [1] | proliferation-promoting effect of the factor (omission from No. 1 medium) [2] | Level of promoting cell proliferation [3]
human interleukin-7 [human IL-7] | 17 | significant proliferation-promoting effect | significantly promote the proliferation | +
human leukocyte interferon [human IFN-α] |  |  |  | +
human interleukin-6 [human IL-6] | 5.67 | significant proliferation-promoting effect | significantly promote the proliferation | +
human thrombopoietin [human TPO] |  |  |  | −
human interleukin-5 [human IL-5] |  |  |  | −
C[C@@H](N)[C@H]1CC[C@H](C(=O)Nc2ccncc2)CC1 [Y-27632, reference compound] |  |  |  | −
human stem cell factor [human SCF] | 9 | significant proliferation-promoting effect | significantly promote the proliferation | +
B1 | 27 | significant proliferation-promoting effect | significantly promote the proliferation | +
B2 |  |  |  | −
B3 |  |  |  | −
B4 | 27 | significant proliferation-promoting effect | significantly promote the proliferation | +
B5 |  |  |  | −
B6 |  |  |  | −
B7 |  |  |  | −
